What was measured:
Type in all cases: functional
Conditions in all cases: read-out: IZ
Fusarium verticillioides [1] = test: Antifungal activity against Fusarium verticillioides Nirenberg (Sacc.) by agar diffusion method at 50 ug
Fusarium verticillioides [2] = test: Antifungal activity against Fusarium verticillioides Nirenberg (Sacc.) by agar diffusion method at 100 ug
Fusarium verticillioides [3] = test: Antifungal activity against Fusarium verticillioides Nirenberg (Sacc.) by agar diffusion method at 300 ug

C=CCCCCCCCCC(O)=C1C(=O)C=CC1=O [CHRYSOTRIONE A]
zone of inhibition at 50 µg/disc (Fusarium verticillioides [1]): 3 mm
zone of inhibition at 100 µg/disc (Fusarium verticillioides [2]): 10 mm
zone of inhibition at 300 µg/disc (Fusarium verticillioides [3]): 35 mm

CCCCCCCCCCC(O)=C1C(=O)C=CC1=O [CHRYSOTRIONE B]
zone of inhibition at 50 µg/disc (Fusarium verticillioides [1]): 3 mm
zone of inhibition at 100 µg/disc (Fusarium verticillioides [2]): 15 mm
zone of inhibition at 300 µg/disc (Fusarium verticillioides [3]): 18 mm

Cc1cc(C2CCCCC2)n(O)c(=O)c1 [CICLOPIROX]
zone of inhibition at 50 µg/disc (Fusarium verticillioides [1]): 25 mm
